These results are taken from ChEMBL document CHEMBL1208667, “Permanent positive charge strongly influences DNA/RNA binding and antiproliferative activity of urea-phenanthridinium conjugates” (Eur J Med Chem, 2010).

Active and inactive are the calls of the source. No cut-off for these calls is given here.

As a reminder, the Tm is the temperature at the midpoint of the melting transition. For orientation: ΔTm means the change in melting temperature against a reference sample.

For one test, the system named is Nucleic Acid. Kind of test: Binding affinity to poly G-poly C RNA in sodium cacodylate buffer at pH 7 by fluorescence titration assay relative to control. It is filed as nucleic-acid assay.
Conditions: not given
In turn, `Cc1c2cc(NC(=O)NCCCCCCCCCNC(=O)Nc3ccc4c(c3)c(C)[n+](C)c3ccccc43)ccc2c2ccccc2[n+]1C.O=S(=O)([O-])O.O=S(=O)([O-])O` came in with an RFU of 0.5.

In another test the test system is Nucleic Acid. Kind of test: Binding affinity to […] assessed as melting temperature at compound to DNA molar ratio of 0.3 at pH 5 by thermal denaturation assay. It is filed as nucleic-acid assay.
Conditions: not given
In the case of `Cc1c2cc(NC(=O)NCCCCCCCCCNC(=O)Nc3ccc4c(c3)c(C)[n+](C)c3ccccc43)ccc2c2ccccc2[n+]1C.O=S(=O)([O-])O.O=S(=O)([O-])O`, the Tm was 57.7 °C.

For a further test, the system named is Nucleic Acid. As to the kind of experiment: Binding affinity to poly G-poly C RNA in sodium cacodylate buffer at pH 7 by fluorescence titration assay. The format is nucleic-acid assay.
Conditions: not given
Take `Cc1c2cc(NC(=O)NCCCCCCCCCNC(=O)Nc3ccc4c(c3)c(C)[n+](C)c3ccccc43)ccc2c2ccccc2[n+]1C.O=S(=O)([O-])O.O=S(=O)([O-])O`: the log Ks worked out at 5.4.

Another test has as its system Calf thymus DNA. Kind of test: Binding affinity to calf thymus DNA assessed as melting temperature at compound to DNA molar ratio of 0.3 at pH 5 by thermal denaturation assay. It is filed as nucleic-acid assay. The following applies: Bos taurus.
On to `Cc1c2cc(NC(=O)NCCCCCCCCCNC(=O)Nc3ccc4c(c3)c(C)[n+](C)c3ccccc43)ccc2c2ccccc2[n+]1C.O=S(=O)([O-])O.O=S(=O)([O-])O`, for which the midpoint of thermal melting (Tm) came to 74 °C.

A further test relates to Nucleic Acid. As to the kind of experiment: Binding affinity to […] assessed as change in melting temperature at compound to DNA molar ratio of 0.2 at pH 5 by thermal denaturation assay.
Conditions: not given
The format is nucleic-acid assay.
For the molecule `Cc1c2cc(NC(=O)NCCCCCCCCCNC(=O)Nc3ccc4c(c3)c(C)[n+](C)c3ccccc43)ccc2c2ccccc2[n+]1C.O=S(=O)([O-])O.O=S(=O)([O-])O`, the shift in melting temperature (ΔTm) was found to be 7.5 °C.

A further test deals with Nucleic Acid. As to the kind of experiment: Binding affinity to UMP in citric acid buffer at pH 5 by fluorescence titration assay relative to control.
Conditions: not given
It is filed as nucleic-acid assay.
For `Cc1c2cc(NC(=O)NCCCCCCCCCNC(=O)Nc3ccc4c(c3)c(C)[n+](C)c3ccccc43)ccc2c2ccccc2[n+]1C.O=S(=O)([O-])O.O=S(=O)([O-])O`, the RFU was -15.8.

The next test deals with Nucleic Acid. As to the kind of experiment: Binding affinity to […] assessed as change in melting temperature at compound to DNA molar ratio of 0.3 at pH 7 by thermal denaturation assay. The format is nucleic-acid assay.
Conditions: not given
For the molecule `Cc1c2cc(NC(=O)NCCCCCCCCCNC(=O)Nc3ccc4c(c3)c(C)[n+](C)c3ccccc43)ccc2c2ccccc2[n+]1C.O=S(=O)([O-])O.O=S(=O)([O-])O`, the shift in melting temperature (ΔTm) is 5.5 °C.

Another test deals with Nucleic Acid. As to the kind of experiment: Binding affinity to poly dA-poly dT RNA in citric acid buffer at pH 5 by fluorescence titration assay. It is filed as nucleic-acid assay.
Conditions: not given
As for `Cc1c2cc(NC(=O)NCCCCCCCCCNC(=O)Nc3ccc4c(c3)c(C)[n+](C)c3ccccc43)ccc2c2ccccc2[n+]1C.O=S(=O)([O-])O.O=S(=O)([O-])O`, the log Ks was determined as 6.6.

The next test relates to Caco-2. Kind of test: Cytotoxicity against human Caco-2 cells at 100 uM after 72 hrs by MTT assay. The format is functional, cell-based.
Conditions: not given
(Tetrazolium dyes change colour on reduction, which living cells bring about.)
As for `Cc1c2cc(NC(=O)NCCCCCCCCCNC(=O)Nc3ccc4c(c3)c(C)[n+](C)c3ccccc43)ccc2c2ccccc2[n+]1C.O=S(=O)([O-])O.O=S(=O)([O-])O`, the result was inactive.

The subject of another test is Nucleic Acid. As to the kind of experiment: Binding affinity to poly A-poly U RNA assessed as melting temperature at compound to DNA molar ratio of 0.2 at pH 5 by thermal denaturation assay. The format is nucleic-acid assay.
Conditions: not given
On to `Cc1c2cc(NC(=O)NCCCCCCCCCNC(=O)Nc3ccc4c(c3)c(C)[n+](C)c3ccccc43)ccc2c2ccccc2[n+]1C.O=S(=O)([O-])O.O=S(=O)([O-])O`, for which the Tm is 82.9 °C.

The test system of a further test is Calf thymus DNA. Kind of test: Binding affinity to calf thymus DNA in citric acid buffer at pH 5 by fluorescence titration assay. The following applies: Bos taurus. It is filed as nucleic-acid assay.
With `Cc1c2cc(NC(=O)NCCCCCCCCCNC(=O)Nc3ccc4c(c3)c(C)[n+](C)c3ccccc43)ccc2c2ccccc2[n+]1C.O=S(=O)([O-])O.O=S(=O)([O-])O`, the log Ks amounted to 5.6.

For a further test, the system named is Nucleic Acid. Kind of test: Binding affinity to poly A-poly U RNA assessed as change in melting temperature at compound to DNA molar ratio of 0.2 at pH 5 by thermal denaturation assay. The format is nucleic-acid assay.
Conditions: not given
In the case of `Cc1c2cc(NC(=O)NCCCCCCCCCNC(=O)Nc3ccc4c(c3)c(C)[n+](C)c3ccccc43)ccc2c2ccccc2[n+]1C.O=S(=O)([O-])O.O=S(=O)([O-])O`, the thermal shift (ΔTm) amounted to 1.8 °C.

The subject of another test is Nucleic Acid. As to the kind of experiment: Binding affinity to poly A-poly U RNA in sodium cacodylate buffer at pH 7 by fluorescence titration assay. The format is nucleic-acid assay.
Conditions: not given
As for `Cc1c2cc(NC(=O)NCCCCCCCCCNC(=O)Nc3ccc4c(c3)c(C)[n+](C)c3ccccc43)ccc2c2ccccc2[n+]1C.O=S(=O)([O-])O.O=S(=O)([O-])O`, the log Ks stood at 5.8.

Another test relates to Calf thymus DNA. As to the kind of experiment: Binding affinity to calf thymus DNA assessed as melting temperature at compound to DNA molar ratio of 0.2 at pH 7 by thermal denaturation assay. The format is nucleic-acid assay. Conditions: Bos taurus.
Take `Cc1c2cc(NC(=O)NCCCCCCCCCNC(=O)Nc3ccc4c(c3)c(C)[n+](C)c3ccccc43)ccc2c2ccccc2[n+]1C.O=S(=O)([O-])O.O=S(=O)([O-])O`: the Tm worked out at 84.2 °C.

A further test relates to Calf thymus DNA. As to the kind of experiment: Binding affinity to calf thymus DNA assessed as change in melting temperature at compound to DNA molar ratio of 0.2 at pH 5 by thermal denaturation assay. It is filed as nucleic-acid assay. Conditions: Bos taurus.
On to `Cc1c2cc(NC(=O)NCCCCCCCCCNC(=O)Nc3ccc4c(c3)c(C)[n+](C)c3ccccc43)ccc2c2ccccc2[n+]1C.O=S(=O)([O-])O.O=S(=O)([O-])O`, for which the shift in melting temperature (ΔTm) was determined as 13.2 °C.

For the next test, the system named is Nucleic Acid. Kind of test: Binding affinity to CMP in citric acid buffer at pH 5 by fluorescence titration assay relative to control. The format is nucleic-acid assay.
Conditions: not given
With `Cc1c2cc(NC(=O)NCCCCCCCCCNC(=O)Nc3ccc4c(c3)c(C)[n+](C)c3ccccc43)ccc2c2ccccc2[n+]1C.O=S(=O)([O-])O.O=S(=O)([O-])O`, the RFU was -6.4.

For a further test, the system named is HEp-2. Kind of test: Cytotoxicity against human Hep2 cells at 0.1 to 100 uM after 72 hrs by MTT assay.
Conditions: not given
It is filed as functional, cell-based.
Regarding `Cc1c2cc(NC(=O)NCCCCCCCCCNC(=O)Nc3ccc4c(c3)c(C)[n+](C)c3ccccc43)ccc2c2ccccc2[n+]1C.O=S(=O)([O-])O.O=S(=O)([O-])O`, the result was inactive.

A further test deals with Nucleic Acid. As to the kind of experiment: Binding affinity to poly A-poly U RNA assessed as melting temperature at compound to DNA molar ratio of 0.2 at pH 7 by thermal denaturation assay. The format is nucleic-acid assay.
Conditions: not given
In the case of `Cc1c2cc(NC(=O)NCCCCCCCCCNC(=O)Nc3ccc4c(c3)c(C)[n+](C)c3ccccc43)ccc2c2ccccc2[n+]1C.O=S(=O)([O-])O.O=S(=O)([O-])O`, the midpoint of thermal melting (Tm) was determined as 53.8 °C.

In another test the test system is Nucleic Acid. Kind of test: Binding affinity to CMP in sodium cacodylate buffer at pH 7 by fluorescence titration assay relative to control.
Conditions: not given
It is filed as nucleic-acid assay.
In turn, `Cc1c2cc(NC(=O)NCCCCCCCCCNC(=O)Nc3ccc4c(c3)c(C)[n+](C)c3ccccc43)ccc2c2ccccc2[n+]1C.O=S(=O)([O-])O.O=S(=O)([O-])O` registered an RFU of -9.4.

A further test has as its system Nucleic Acid. Kind of test: Binding affinity to poly A-poly U RNA at compound to DNA molar ratio of 0.1 to 0.5 at pH 5 by circular dichroism. The format is nucleic-acid assay.
Conditions: not given
(Circular dichroism is widely used to follow secondary structure.)
In the case of `Cc1c2cc(NC(=O)NCCCCCCCCCNC(=O)Nc3ccc4c(c3)c(C)[n+](C)c3ccccc43)ccc2c2ccccc2[n+]1C.O=S(=O)([O-])O.O=S(=O)([O-])O`, the result was Active.

Another test has as its system Nucleic Acid. As to the kind of experiment: Binding affinity to poly A-poly U RNA at compound to DNA molar ratio of 0.1 to 0.5 at pH 7 by circular dichroism. It is filed as nucleic-acid assay.
Conditions: not given
For the molecule `Cc1c2cc(NC(=O)NCCCCCCCCCNC(=O)Nc3ccc4c(c3)c(C)[n+](C)c3ccccc43)ccc2c2ccccc2[n+]1C.O=S(=O)([O-])O.O=S(=O)([O-])O`, the result was Active.

A further test concerns Nucleic Acid. As to the kind of experiment: Binding affinity to poly G-poly C RNA in citric acid buffer at pH 5 by fluorescence titration assay relative to control. It is filed as nucleic-acid assay.
Conditions: not given
`Cc1c2cc(NC(=O)NCCCCCCCCCNC(=O)Nc3ccc4c(c3)c(C)[n+](C)c3ccccc43)ccc2c2ccccc2[n+]1C.O=S(=O)([O-])O.O=S(=O)([O-])O` had an RFU of 0.
